Experimental data reported in ChEMBL document CHEMBL1201862, “PubChem BioAssay data set” (2004).
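Protocol summary: plate cells (96-well), add compound at 5 concentrations, incubate 48 h, interpolate endpoints linearly. GI50 marks 50% less growth.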 Activity calls are given as the source filed them. Rule as the data show it: active = GI50 up to about 1.1 µM and inactive = higher.

How the values were obtained:
Assay in all cases: NCI-60 cell line screen, 48 h
786-0 = test system: 786-0
A549 = test system: A549
ACHN = test system: ACHN
CAKI-1 = test system: CAKI-1
CCRF-CEM = test system: CCRF-CEM
COLO 205 = test system: COLO 205
DU-145 = test system: DU-145
EKVX = test system: EKVX
HCC 2998 = test system: HCC 2998
HCT-116 = test system: HCT-116
HCT-15 = test system: HCT-15
HL-60 = test system: HL-60
HOP-62 = test system: HOP-62
HOP-92 = test system: HOP-92
HT-29 = test system: HT-29
IGROV-1 = test system: IGROV-1
K562 = test system: K562
KM12 = test system: KM12
LOX IMVI = test system: LOX IMVI
M14 = test system: M14
MCF7 = test system: MCF7
MDA-MB-231 = test system: MDA-MB-231
MDA-MB-435 = test system: MDA-MB-435
MDA-N = test system: MDA-N
MOLT-4 = test system: MOLT-4
Malme-3M = test system: Malme-3M
NCI-H23 = test system: NCI-H23
NCI-H460 = test system: NCI-H460
NCI/ADR-RES = test system: NCI/ADR-RES
OVCAR-3 = test system: OVCAR-3
OVCAR-4 = test system: OVCAR-4
OVCAR-5 = test system: OVCAR-5
OVCAR-8 = test system: OVCAR-8
PC-3 = test system: PC-3
RPMI-8226 = test system: RPMI-8226
RXF 393 = test system: RXF 393
SF-268 = test system: SF-268
SF-295 = test system: SF-295
SF-539 = test system: SF-539
SK-MEL-28 = test system: SK-MEL-28
SK-MEL-2 = test system: SK-MEL-2
SK-MEL-5 = test system: SK-MEL-5
SK-OV-3 = test system: SK-OV-3
SN12C = test system: SN12C
SNB-19 = test system: SNB-19
SNB-75 = test system: SNB-75
SR = test system: SR
SW-620 = test system: SW-620
T47D = test system: T47D
TK-10 = test system: TK-10
U-251 = test system: U-251
UACC-257 = test system: UACC-257
UACC-62 = test system: UACC-62
A498 = test system: A498
Hs-578T = test system: Hs-578T
NCI-H226 = test system: NCI-H226
NCI-H522 = test system: NCI-H522
UO-31 = test system: UO-31

SMILES: c1ccc(-n2nc3ccc4nonc4c3n2)cc1
- GI50 (786-0): > 100 µM (inactive)
- GI50 (A549): > 100 µM (inactive)
- GI50 (ACHN): > 100 µM (inactive)
- GI50 (CAKI-1): > 100 µM (inactive)
- GI50 (CCRF-CEM): > 100 µM (inactive)
- GI50 (COLO 205): > 100 µM (inactive)
- GI50 (DU-145): > 100 µM (inactive)
- GI50 (EKVX): 44.6 µM (inactive)
- GI50 (HCC 2998): > 100 µM (inactive)
- GI50 (HCT-116): > 100 µM (inactive)
- GI50 (HCT-15): > 100 µM
- GI50 (HL-60): > 100 µM (inactive)
- GI50 (HOP-62): > 100 µM (inactive)
- GI50 (HOP-92): > 100 µM (inactive)
- GI50 (HT-29): > 100 µM (inactive)
- GI50 (IGROV-1): > 100 µM (inactive)
- GI50 (K562): > 100 µM (inactive)
- GI50 (KM12): > 100 µM (inactive)
- GI50 (LOX IMVI): > 100 µM (inactive)
- GI50 (M14): > 100 µM (inactive)
- GI50 (MCF7): > 100 µM (inactive)
- GI50 (MDA-MB-231): > 100 µM (inactive)
- GI50 (MDA-MB-435): > 100 µM (inactive)
- GI50 (MDA-N): > 100 µM (inactive)
- GI50 (MOLT-4): > 100 µM (inactive)
- GI50 (Malme-3M): > 100 µM (inactive)
- GI50 (NCI-H23): > 100 µM (inactive)
- GI50 (NCI-H460): > 100 µM (inactive)
- GI50 (NCI/ADR-RES): > 100 µM (inactive)
- GI50 (OVCAR-3): > 100 µM (inactive)
- GI50 (OVCAR-4): > 100 µM (inactive)
- GI50 (OVCAR-5): > 100 µM (inactive)
- GI50 (OVCAR-8): > 100 µM (inactive)
- GI50 (PC-3): > 100 µM (inactive)
- GI50 (RPMI-8226): > 100 µM (inactive)
- GI50 (RXF 393): > 100 µM (inactive)
- GI50 (SF-268): > 100 µM (inactive)
- GI50 (SF-295): > 100 µM (inactive)
- GI50 (SF-539): > 100 µM (inactive)
- GI50 (SK-MEL-28): > 100 µM (inactive)
- GI50 (SK-MEL-2): > 100 µM (inactive)
- GI50 (SK-MEL-5): > 100 µM (inactive)
- GI50 (SK-OV-3): > 100 µM (inactive)
- GI50 (SN12C): > 100 µM (inactive)
- GI50 (SNB-19): 45.9 µM (inactive)
- GI50 (SNB-75): 49.1 µM (inactive)
- GI50 (SR): > 100 µM (inactive)
- GI50 (SW-620): > 100 µM (inactive)
- GI50 (T47D): > 100 µM (inactive)
- GI50 (TK-10): > 100 µM (inactive)
- GI50 (U-251): > 100 µM (inactive)
- GI50 (UACC-257): > 100 µM (inactive)
- GI50 (UACC-62): > 100 µM (inactive)

SMILES: C[C@@H]1C[C@@H](O)[C@@]2(O)C13CC(=O)OC(C3)[C@@H](C)[C@@]2(C)CO (stereo partly drawn)
- GI50 (786-0): > 100 µM (inactive)
- GI50 (A498): > 100 µM (inactive)
- GI50 (A549): > 100 µM (inactive)
- GI50 (ACHN): > 100 µM (inactive)
- GI50 (COLO 205): > 100 µM (inactive)
- GI50 (DU-145): > 100 µM (inactive)
- GI50 (EKVX): > 100 µM (inactive)
- GI50 (HCC 2998): > 100 µM (inactive)
- GI50 (HCT-116): > 100 µM (inactive)
- GI50 (HCT-15): > 100 µM
- GI50 (HL-60): > 100 µM (inactive)
- GI50 (HOP-62): > 100 µM (inactive)
- GI50 (HOP-92): > 100 µM (inactive)
- GI50 (HT-29): > 100 µM (inactive)
- GI50 (Hs-578T): > 100 µM (inactive)
- GI50 (IGROV-1): > 100 µM (inactive)
- GI50 (K562): > 100 µM (inactive)
- GI50 (KM12): > 100 µM (inactive)
- GI50 (LOX IMVI): > 100 µM (inactive)
- GI50 (M14): > 100 µM (inactive)
- GI50 (MCF7): > 100 µM (inactive)
- GI50 (MDA-MB-231): > 100 µM (inactive)
- GI50 (MDA-MB-435): > 100 µM (inactive)
- GI50 (MDA-N): > 100 µM (inactive)
- GI50 (MOLT-4): > 100 µM (inactive)
- GI50 (Malme-3M): > 100 µM (inactive)
- GI50 (NCI-H226): > 100 µM (inactive)
- GI50 (NCI-H23): > 100 µM (inactive)
- GI50 (NCI-H460): > 100 µM (inactive)
- GI50 (NCI-H522): > 100 µM (inactive)
- GI50 (NCI/ADR-RES): > 100 µM (inactive)
- GI50 (OVCAR-3): > 100 µM (inactive)
- GI50 (OVCAR-4): > 100 µM (inactive)
- GI50 (OVCAR-5): > 100 µM (inactive)
- GI50 (OVCAR-8): > 100 µM (inactive)
- GI50 (PC-3): > 100 µM (inactive)
- GI50 (RPMI-8226): > 100 µM (inactive)
- GI50 (RXF 393): > 100 µM (inactive)
- GI50 (SF-268): > 100 µM (inactive)
- GI50 (SF-295): > 100 µM (inactive)
- GI50 (SF-539): > 100 µM (inactive)
- GI50 (SK-MEL-28): > 100 µM (inactive)
- GI50 (SK-MEL-2): > 100 µM (inactive)
- GI50 (SK-MEL-5): > 100 µM (inactive)
- GI50 (SK-OV-3): > 100 µM (inactive)
- GI50 (SN12C): > 100 µM (inactive)
- GI50 (SNB-19): > 100 µM (inactive)
- GI50 (SR): > 100 µM (inactive)
- GI50 (SW-620): > 100 µM (inactive)
- GI50 (T47D): > 100 µM (inactive)
- GI50 (TK-10): > 100 µM (inactive)
- GI50 (U-251): > 100 µM (inactive)
- GI50 (UACC-257): > 100 µM (inactive)
- GI50 (UACC-62): > 100 µM (inactive)
- GI50 (UO-31): > 100 µM (inactive)
